Experimental data published in PubChem BioAssay (NCI).
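Each compound was tested at five concentrations against cells in 96-well plates for 48 hours. GI50: concentration for 50% inhibition of growth. TGI is the concentration that stops growth completely.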

Columns and labels:
Assay in all cases: growth of human tumour cells (NCI), 48 h
RPMI-8226 leukemia = test system: RPMI-8226 leukemia
ACHN renal = test system: ACHN renal
TK-10 renal = test system: TK-10 renal
MDA-MB-435 = test system: MDA-MB-435
A549 NSCLC = test system: A549 NSCLC
NCI/ADR-RES ovarian = test system: NCI/ADR-RES ovarian
MDA-MB-231 breast = test system: MDA-MB-231 breast
HCT-15 colon = test system: HCT-15 colon
HOP-62 NSCLC = test system: HOP-62 NSCLC
OVCAR-8 ovarian = test system: OVCAR-8 ovarian
KM12 colon = test system: KM12 colon
SK-MEL-28 melanoma = test system: SK-MEL-28 melanoma
SK-MEL-5 melanoma = test system: SK-MEL-5 melanoma
SNB-19 CNS = test system: SNB-19 CNS
786-0 renal = test system: 786-0 renal
HT29 colon = test system: HT29 colon
M14 melanoma = test system: M14 melanoma
OVCAR-3 ovarian = test system: OVCAR-3 ovarian
SN12C renal = test system: SN12C renal
SF-295 CNS = test system: SF-295 CNS
RXF 393 renal = test system: RXF 393 renal
U251 CNS = test system: U251 CNS
BT-549 breast = test system: BT-549 breast
K-562 leukemia = test system: K-562 leukemia
UACC-62 melanoma = test system: UACC-62 melanoma
MOLT-4 leukemia = test system: MOLT-4 leukemia
IGROV1 ovarian = test system: IGROV1 ovarian
NCI-H460 lung = test system: NCI-H460 lung
T-47D breast = test system: T-47D breast
COLO 205 colon = test system: COLO 205 colon
UACC-257 melanoma = test system: UACC-257 melanoma
HCT-116 colon = test system: HCT-116 colon
HL-60(TB) leukemia = test system: HL-60(TB) leukemia
EKVX NSCLC = test system: EKVX NSCLC
MALME-3M melanoma = test system: MALME-3M melanoma
SNB-75 CNS = test system: SNB-75 CNS
SW-620 colon = test system: SW-620 colon
LOX IMVI melanoma = test system: LOX IMVI melanoma
PC-3 prostate = test system: PC-3 prostate
OVCAR-4 ovarian = test system: OVCAR-4 ovarian
SF-268 CNS = test system: SF-268 CNS
HOP-92 NSCLC = test system: HOP-92 NSCLC
UO-31 renal = test system: UO-31 renal
SK-OV-3 ovarian = test system: SK-OV-3 ovarian
SK-MEL-2 melanoma = test system: SK-MEL-2 melanoma
NCI-H23 lung = test system: NCI-H23 lung
CAKI-1 renal = test system: CAKI-1 renal

`COC(=O)/C(=C/N1CCN(C(=O)c2ccco2)C1=S)C(C)=O` showed a GI50 (RPMI-8226 leukemia) of 5.49 µM, a TGI (RPMI-8226 leukemia) of over 100 µM and a GI50 (ACHN renal) of 4.05 µM. The TGI (ACHN renal) was 17.8 µM, the GI50 (TK-10 renal) was 3.54 µM and the TGI (TK-10 renal) was 14.9 µM. For the same compound, the GI50 (MDA-MB-435) was 4.51 µM, the TGI (MDA-MB-435) was 36.6 µM and the GI50 (A549 NSCLC) was 19.3 µM. It also gave a TGI (A549 NSCLC) of 39.7 µM, a GI50 (NCI/ADR-RES ovarian) of 22.2 µM and a TGI (NCI/ADR-RES ovarian) of 56.8 µM. For the same compound, the GI50 (MDA-MB-231 breast) was 9.01 µM, the TGI (MDA-MB-231 breast) was 26.5 µM and the GI50 (HCT-15 colon) was 2.22 µM. It also gave a TGI (HCT-15 colon) of 5.77 µM, a GI50 (HOP-62 NSCLC) of 20.6 µM and a TGI (HOP-62 NSCLC) of 42.8 µM. The GI50 (OVCAR-8 ovarian) was 27.8 µM, the TGI (OVCAR-8 ovarian) was 88.5 µM and the GI50 (KM12 colon) was 3.04 µM. For the same compound, the TGI (KM12 colon) was 9.78 µM, the GI50 (SK-MEL-28 melanoma) was 9.08 µM and the TGI (SK-MEL-28 melanoma) was 52.6 µM. It also gave a GI50 (SK-MEL-5 melanoma) of 5.26 µM, a TGI (SK-MEL-5 melanoma) of 17.4 µM and a GI50 (SNB-19 CNS) of 41.7 µM. For the same compound, the TGI (SNB-19 CNS) was 94.8 µM, the GI50 (786-0 renal) was 11.2 µM and the TGI (786-0 renal) was 27.7 µM. The GI50 (HT29 colon) was 15.8 µM, the TGI (HT29 colon) was 46 µM and the GI50 (M14 melanoma) was 10.7 µM. For the same compound, the TGI (M14 melanoma) was 24.4 µM, the GI50 (OVCAR-3 ovarian) was 2.67 µM and the TGI (OVCAR-3 ovarian) was 11.6 µM. The GI50 (SN12C renal) was 5.93 µM, the TGI (SN12C renal) was 22.4 µM and the GI50 (SF-295 CNS) was 18.6 µM. The TGI (SF-295 CNS) was 83.8 µM, the GI50 (RXF 393 renal) was 4.41 µM and the TGI (RXF 393 renal) was 9.49 µM. It also gave a GI50 (U251 CNS) of 5.53 µM, a TGI (U251 CNS) of 23.1 µM and a GI50 (BT-549 breast) of 3.48 µM. The TGI (BT-549 breast) was 9.03 µM, the GI50 (K-562 leukemia) was 10.2 µM and the TGI (K-562 leukemia) was over 100 µM. It also gave a GI50 (UACC-62 melanoma) of 11.5 µM, a TGI (UACC-62 melanoma) of 28.3 µM and a GI50 (MOLT-4 leukemia) of 20.8 µM. It also gave a TGI (MOLT-4 leukemia) of over 100 µM, a GI50 (IGROV1 ovarian) of 10.4 µM and a TGI (IGROV1 ovarian) of 36 µM. The GI50 (NCI-H460 lung) was 2.19 µM, the TGI (NCI-H460 lung) was 5.88 µM and the GI50 (T-47D breast) was 6.02 µM. For the same compound, the TGI (T-47D breast) was 29.8 µM, the GI50 (COLO 205 colon) was 12.6 µM and the TGI (COLO 205 colon) was 35.8 µM. It also gave a GI50 (UACC-257 melanoma) of 17.2 µM, a TGI (UACC-257 melanoma) of 39.3 µM and a GI50 (HCT-116 colon) of 7.42 µM. For the same compound, the TGI (HCT-116 colon) was 24.2 µM, the GI50 (HL-60(TB) leukemia) was 7.47 µM and the TGI (HL-60(TB) leukemia) was 71.5 µM. For the same compound, the GI50 (EKVX NSCLC) was 2.64 µM, the TGI (EKVX NSCLC) was 9.89 µM and the GI50 (MALME-3M melanoma) was 5.64 µM. It also gave a TGI (MALME-3M melanoma) of 50.4 µM, a GI50 (SNB-75 CNS) of 21 µM and a TGI (SNB-75 CNS) of over 100 µM. The GI50 (SW-620 colon) was 3.9 µM, the TGI (SW-620 colon) was 12.5 µM and the GI50 (LOX IMVI melanoma) was 1.59 µM. It also gave a TGI (LOX IMVI melanoma) of 3.99 µM, a GI50 (PC-3 prostate) of 18.1 µM and a TGI (PC-3 prostate) of over 100 µM. The GI50 (OVCAR-4 ovarian) was 17.4 µM, the TGI (OVCAR-4 ovarian) was 42.9 µM and the GI50 (SF-268 CNS) was 5.84 µM. For the same compound, the TGI (SF-268 CNS) was 25.6 µM, the GI50 (HOP-92 NSCLC) was 20.8 µM and the TGI (HOP-92 NSCLC) was 75.4 µM. The GI50 (UO-31 renal) was 13.5 µM, the TGI (UO-31 renal) was 30.9 µM and the GI50 (SK-OV-3 ovarian) was 31.3 µM. The TGI (SK-OV-3 ovarian) was 78.2 µM, the GI50 (SK-MEL-2 melanoma) was 15.2 µM and the TGI (SK-MEL-2 melanoma) was 51 µM. It also gave a GI50 (NCI-H23 lung) of 12.2 µM, a TGI (NCI-H23 lung) of 31.9 µM and a GI50 (CAKI-1 renal) of 2.82 µM. It also gave a TGI (CAKI-1 renal) of 8.52 µM.
